20 compounds from patent publication US8569339B2, “Soluble guanylate cyclase activators” (Boehringer Ingelheim International GmbH, priority 2011, dated 2013) can be followed below.

Structures are written as SMILES. Values after ≈ are worked out from the molar mass of the structure shown.

In general, EC50 refers to the concentration that produces a half-maximal response.

Data set [1] addresses T1, Recombinant human soluble guanylate cyclase (sGC) (Homo sapiens, UniProt Q02153).
T1 construct: histidine tag (C); made in house; host or cells: Sf9 insect cells (baculovirus coinfection)
As to the kind of experiment: Molecular assay: activation of heme-free sGC, cGMP detection (CisBio kit). It is filed as biochemical. Conditions: 300 pM heme-free sGC, 37° C., 60 minutes, cGMP formation. As for the experimental part: The compounds of the invention may be evaluated in the following molecular assay:
Recombinant human soluble guanylate cyclase (sGC) is purified from Sf9 insect cells coinfected with baculoviruses expressing the alpha 1 or beta 1 subunit of sGC, both with a C-terminal histidine tag. Heme-free sGC is prepared by treating cell lysate with a final concentration of 0.5% Tween 20 prior to purification on a nickel affinity column.
sGC catalyzes the conversion of guanosine-5′-triphosphate (GTP) to cyclic guanosine monophosphate (cGMP). The activity of sGC is measured in vitro using the commercially available CisBio cGMP detection kit (catalog #62GM2PEB) in a 384 well format. In brief, 300 pM heme-free sGC is incubated in reaction buffer (50 mM MOPS pH 6.8, 0.2 N KOH, 50 mM NaCl, 2 mM MgCl2, 0.1% BSA, 1.25 mM IBMX, 0.25 mM TCEP, 50 nM GTP) in the presence or absence of dilutions of test compounds diluted in DMSO (final concentration of 1%) in a volume of 10 microL at 37° C. for 60 minutes. Undiluted reaction products or an 80-fold dilution of reaction products (10 microL of either) prepared in reaction buffer containing 0.2 mM TCEP and 10 mM EDTA is mixed with 5 microL of d2-cGMP plus 5 microL of Eu^3+cryptate-labeled anti-cGMP, each diluted in buffer containing 0.1 M KPO4 pH 7.5, 0.4 M KF, 20 mM EDTA, 0.2% BSA. After a one hour incubation at room temperature in the dark, the mixtures are quantified on an EnVision plate reader (PerkinElmer) according to manufacturer instructions (laser excitation 337 nm, emission 620 and 665 nm). The ratio at each compound concentration is converted to nM cGMP using the linear portion of a calibration curve. Log compound concentration is plotted against combined undiluted and diluted nM cGMP values to determine the EC50 for each curve.
Representative compounds of the present invention were tested for activity in the above assay. Preferred compounds have an IC50<5,000 nM and more preferred compounds have an IC50<100 nM in this assay.

A short description of data set [2]: Assessment of solubility (HT solubility, pION, UV). Format: physicochemical. The conditions noted are these: incubated 16-19 hours, 1.0% DMSO, 100 uM; for solubility kinetic: pH 4.5 buffer (pION system solution), pH 4.5, aqueous buffer, kinetic from dmso stock, pH 4.5 buffer, read-out: Sol pH 4.5; for Sol pH 7.4: pH 7.4 buffer. The procedure:
Solubility is measured by the following method.
DMSO stock samples at 10 mM conc are prepared. […] The samples are pierced and 100 ul of thawed samples are transferred into the PCR plate for analysis. Each sample is run in duplicate at each pH (pH 4.5 and 7.4). Up to 95 samples can be run in replicate at 2 pH's+1 DMSO (blank).
2. Preparation of pH 4.5 and 7.4 buffers:
pH 4.5 buffer: To 12.5 of system solution (pION) qs to 500 mL of distilled water (pH 2.85-2.90); adjust the pH to pH 4.5 with 0.5 N NaOH.
pH 7.4 buffer: To 12.5 of system solution (pION) qs to 500 mL of distilled water (pH 2.85-2.90); adjust the pH to pH 7.4 with 0.5N NaOH.
Preparation of UV blank plate:
75 ul of buffer (pH 7.4 or pH 4.5) is added to UV plate followed by addition of […] of N-propanol. The solution is mixed and the blank spectrum is read using spectrophotometer.
Preparation of Reference UV plate:
10 ul of each stock sample (including DMSO control) is added to 190 ul of N-propanol to prepare the reference stock plate. Reference stock samples are mixed and 5 ul of each stock sample is added to UV blank plate after it is read spectrophotometrically. The reference stock sample is mixed with blank solution in UV plate and the reference spectrum is read using UV spectrophotometer.
Preparation of sample for incubation:
Solubility at pH 7.4: 6 ul of each stock sample (including DMSO control) is added to the storage plate containing 600 ul of pH 7.4 buffer, mixed and incubated for 16-19 hours. The plate is sealed well during the incubation process. The DMSO content in the sample is 1.0%. The concn in deep well plates is 100 uM
6 ul of each stock sample (including DMSO control) is added to the deep well plate containing 600 ul of pH 4.5 buffer, mixed and incubated for 16-19 hours. The plate is sealed well during the incubation process. The DMSO content in the sample is 1.0%. The concn in deep well plates is 100 uM
Preparation of sample UV plate:
At the end of the incubation period, 100 uL of sample from the storage plate is vacuum filtered using a filter plate. This step wets the filters and the filtrate is discarded. Another 200 ul of the sample from the deep well plate is vacuum filtered using the same filter block but a clean filter plate. 75 ul of the filtrate from the filter plate is transferred to a UV sample plate. 75 ul of N-propanol is added to this UV plate. The solution is mixed and the spectrum is read using the UV spectrophotometer.
The spectra collected for blank, reference and sample from 250-498 nm is analyzed using pION software. If the sample precipitates out, the solubility is reported as XX μg/ml. If there is no precipitation and the sample is soluble, solubility is reported as […] (YY being the initial concentration of the compound in the sample).

T1 sequence (Q02108 whole entry partner): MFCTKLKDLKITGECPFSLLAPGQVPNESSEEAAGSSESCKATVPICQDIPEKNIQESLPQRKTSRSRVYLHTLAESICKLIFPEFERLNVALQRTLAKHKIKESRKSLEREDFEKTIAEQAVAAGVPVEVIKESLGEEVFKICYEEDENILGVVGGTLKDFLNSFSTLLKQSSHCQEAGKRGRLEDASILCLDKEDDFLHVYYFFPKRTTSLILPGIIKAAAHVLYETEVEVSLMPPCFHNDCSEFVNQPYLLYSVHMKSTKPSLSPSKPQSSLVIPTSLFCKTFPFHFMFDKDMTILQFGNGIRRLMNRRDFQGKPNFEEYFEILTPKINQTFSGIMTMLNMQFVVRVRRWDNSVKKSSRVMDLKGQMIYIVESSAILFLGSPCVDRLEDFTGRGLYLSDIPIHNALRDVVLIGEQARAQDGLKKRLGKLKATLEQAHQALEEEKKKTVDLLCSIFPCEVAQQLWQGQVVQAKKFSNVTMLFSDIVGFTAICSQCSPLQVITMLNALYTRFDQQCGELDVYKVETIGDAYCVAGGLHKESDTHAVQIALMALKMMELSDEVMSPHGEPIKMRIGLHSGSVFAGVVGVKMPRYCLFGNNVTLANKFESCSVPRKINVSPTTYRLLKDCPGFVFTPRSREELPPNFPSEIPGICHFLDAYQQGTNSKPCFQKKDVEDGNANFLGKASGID
T1 sequence (Q02153 whole entry): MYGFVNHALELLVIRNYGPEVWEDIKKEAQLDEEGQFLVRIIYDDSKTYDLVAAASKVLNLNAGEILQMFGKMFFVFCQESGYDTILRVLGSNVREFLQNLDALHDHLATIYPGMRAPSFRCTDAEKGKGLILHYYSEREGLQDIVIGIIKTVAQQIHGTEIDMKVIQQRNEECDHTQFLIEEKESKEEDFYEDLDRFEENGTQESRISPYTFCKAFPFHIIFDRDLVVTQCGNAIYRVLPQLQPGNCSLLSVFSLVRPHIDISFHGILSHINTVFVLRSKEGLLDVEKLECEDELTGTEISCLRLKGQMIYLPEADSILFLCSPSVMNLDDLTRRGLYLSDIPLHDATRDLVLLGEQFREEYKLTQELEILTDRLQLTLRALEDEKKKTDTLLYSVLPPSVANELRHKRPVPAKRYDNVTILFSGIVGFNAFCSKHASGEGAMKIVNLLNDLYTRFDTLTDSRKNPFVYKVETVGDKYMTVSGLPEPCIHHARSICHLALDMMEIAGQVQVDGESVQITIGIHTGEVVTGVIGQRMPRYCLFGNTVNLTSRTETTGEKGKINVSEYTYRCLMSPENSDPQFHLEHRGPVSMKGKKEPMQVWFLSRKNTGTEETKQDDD

For `Cc1ccc(OCc2ccc3c(c2)CCN(S(=O)(=O)CC(=O)O)C3)c(-c2cccc(-n3ncc(C(=O)O)c3C(F)(F)F)n2)c1` [Compound 1], the EC50 in data set [1] was 148 nM. In data set [2], the solubility kinetic was greater than 62 µg/mL and the “Sol pH 7.4” value was greater than 62 μg/mL.

Regarding `Cc1ccc(OCc2ccc3c(c2)CCN(C)C3)c(-c2cccc(-n3ncc(C(=O)O)c3C(F)(F)F)n2)c1` [Compound 2, 1-{6-[5-methyl-2-(2-methyl-1,2,3,4-tetrahydroisoquinolin-6-ylmethoxy)phenyl]pyridin-2-yl}-5-trifluoromethyl-1H-pyrazole-4-carboxylic acid], the concentration giving a half-maximal response (EC50) in data set [1] turned out to be 46 nM. Moreover, in data set [2], the solubility kinetic worked out at 6.5 µg/mL (≈ 12.4 µM) and the “Sol pH 7.4” value worked out at 6.1 μg/mL.

On to `Cc1ccc(OCc2ccc3c(c2)CCN(S(=O)(=O)CCCC(=O)O)C3)c(-c2cccc(-n3ncc(C(=O)O)c3C(F)(F)F)n2)c1` [Compound 3, 1-(6-{2-[2-(3-carboxypropane-1-sulfonyl)-1,2,3,4-tetrahydroisoquinolin-6-ylmethoxy]-5-methylphenyl}pyridin-2-yl)-5-trifluoromethyl-1H-pyrazole-4-carboxylic acid], for which, in data set [1], the EC50 came out at 27 nM. In addition, in data set [2], the solubility kinetic is 0.8 µg/mL (≈ 1.21 µM) and the “Sol pH 7.4” value is listed as greater than 65 μg/mL.

Take `Cc1ccc(OCc2ccc3c(c2)CCNC3)c(-c2cccc(-n3ncc(C(=O)O)c3C(F)(F)F)n2)c1` [Compound 4, 1-{6-[5-Methyl-2-(1,2,3,4-tetrahydroisoquinolin-6-ylmethoxy)phenyl]pyridin-2-yl}-5-trifluoromethyl-1H-pyrazole-4-carboxylic acid]: the EC50 in data set [1] was found to be 575 nM. In data set [2], the solubility kinetic is 17.6 µg/mL (≈ 34.6 µM) and the “Sol pH 7.4” value is 21.7 μg/mL.

Regarding `Cc1ccc(OCc2ccc3c(c2)CCN(S(C)(=O)=O)C3)c(-c2cccc(-n3ncc(C(=O)O)c3C(F)(F)F)n2)c1` [Compound 5], the EC50 in data set [1] amounted to 33 nM. In addition, in data set [2], the solubility kinetic was found to be 0.1 µg/mL (≈ 0.17 µM) and the “Sol pH 7.4” value is listed as greater than 58 μg/mL.

On to `CC(=O)N1CCc2cc(COc3ccc(C)cc3-c3cccc(-n4ncc(C(=O)O)c4C(F)(F)F)n3)ccc2C1` [Compound 6, 1-{6-[2-(2-acetyl-1,2,3,4-tetrahydroisoquinolin-6-ylmethoxy)-5-methylphenyl]pyridin-2-yl}-5-trifluoromethyl-1H-pyrazole-4-carboxylic acid], for which the EC50 in data set [1] stood at 78 nM. Also, in data set [2], the solubility kinetic came to 0.5 µg/mL (≈ 0.908 µM) and the “Sol pH 7.4” value is greater than 54 μg/mL.

With `Cc1ccc(OCc2ccc3snnc3c2)c(-c2cccc(-n3ncc(C(=O)O)c3C(F)(F)F)n2)c1` [Compound 7, 1-{6-[2-(benzo[1,2,3]thiadiazol-5-ylmethyoxy)-5-methylphenyl]pyridin-2-yl}-5-trifluoromethyl-1H-pyrazole-4-carboxylic acid], in data set [1], the EC50 came to 490 nM. In addition, in data set [2], the solubility kinetic is 2.1 µg/mL (≈ 4.11 µM) and the “Sol pH 7.4” value was greater than 51 μg/mL.

With `Cc1ccc(OCc2ccc3c(c2)CCN(C)C3=O)c(-c2cccc(-n3ncc(C(=O)O)c3C(F)(F)F)n2)c1` [Compound 8], the EC50 in data set [1] worked out at 280 nM. For the same compound, in data set [2], the solubility kinetic amounted to 6.9 µg/mL (≈ 12.9 µM) and the “Sol pH 7.4” value was greater than 53 μg/mL.

For `Cc1ccc(OCc2ccc3c(c2)CCN3S(C)(=O)=O)c(-c2cccc(-n3ncc(C(=O)O)c3C(F)(F)F)n2)c1` [Compound 9, 1-{6-[2-(1-methanesulfonyl-2,3-dihydro-1H-indol-5-ylmethyoxy)-5-methylphenyl]pyridin-2-yl}-5-trifluoromethyl-1H-pyrazole-4-carboxylic acid], the EC50 in data set [1] came to 67 nM. Further, in data set [2], the solubility kinetic came to 0.4 µg/mL (≈ 0.699 µM) and the “Sol pH 7.4” value is listed as greater than 54 μg/mL.

In the case of `Cc1ccc(OCc2ccc3c(c2)nnn3C)c(-c2cccc(-n3ncc(C(=O)O)c3C(F)(F)F)n2)c1` [Compound 10], in data set [1], the EC50 amounted to 280 nM. Moreover, in data set [2], the solubility kinetic was 0.95 µg/mL (≈ 1.87 µM) and the “Sol pH 7.4” value was greater than 50 μg/mL.

As to `Cc1ccc(OCc2ccc3c(c2)CCN(C2CC2)C3)c(-c2cccc(-n3ncc(C(=O)O)c3C(F)(F)F)n2)c1` [Compound 12], the concentration giving a half-maximal response (EC50) in data set [1] is 19 nM. In data set [2], the solubility kinetic is greater than 54 µg/mL and the “Sol pH 7.4” value is listed as greater than 54 μg/mL.

For the compound `Cc1ccc(OCc2ccc3c(c2)N(C)CCC3)c(-c2cccc(-n3ncc(C(=O)O)c3C(F)(F)F)n2)c1` [Compound 13], the 50% effective concentration (EC50) in data set [1] is 79 nM. In data set [2], the solubility kinetic worked out at 8.1 µg/mL (≈ 15.5 µM) and the “Sol pH 7.4” value is on record as greater than 52 μg/mL.

Consider `Cc1ccc(OCc2ccc3c(c2C)CCN(CC2CCOC2)C3)c(-c2cccc(-c3csc(C(=O)O)c3C)n2)c1` (centres unmarked) [Compound 14], for which the EC50 in data set [1] worked out at 11 nM. In data set [2], the solubility kinetic is greater than 79 µg/mL and the “Sol pH 7.4” value is given as 44.4 μg/mL.

In the case of `Cc1ccc(OCc2ccc3c(c2)CCN(C2CCC2)C3)c(-c2cccc(-n3ncc(C(=O)O)c3C(F)(F)F)n2)c1` [Compound 16], in data set [1], the half-maximal effective concentration (EC50) came out at 33 nM. In data set [2], the solubility kinetic is greater than 67 µg/mL and the “Sol pH 7.4” value is greater than 67 μg/mL.

Turning to `Cc1ccc(OCc2ccc3c(c2)CCN(C2CCCC2)C3)c(-c2cccc(-n3ncc(C(=O)O)c3C(F)(F)F)n2)c1` [Compound 17], the EC50 in data set [1] is 13 nM. For the same compound, in data set [2], the solubility kinetic stood at 44.3 µg/mL (≈ 76.8 µM) and the “Sol pH 7.4” value was greater than 68 μg/mL.

Regarding `Cc1ccc(OCc2ccc3c(c2)CCN(Cc2ccccn2)C3)c(-c2cccc(-n3ncc(C(=O)O)c3C(F)(F)F)n2)c1` [Compound 18], the EC50 in data set [1] turned out to be 0.8 nM. In data set [2], the solubility kinetic is greater than 59 µg/mL and the “Sol pH 7.4” value is recorded as greater than 59 μg/mL.

For `Cc1ccc(OCc2ccc3c(c2)CCN(C2CCCCC2)C3)c(-c2cccc(-n3ncc(C(=O)O)c3C(F)(F)F)n2)c1` [Compound 19], the EC50 in data set [1] came out at 2 nM. In addition, in data set [2], the solubility kinetic was greater than 58 µg/mL and the “Sol pH 7.4” value is listed as greater than 58 μg/mL.

With `Cc1ccc(OCc2ccc3c(c2)CCN(CCc2ccccc2)C3)c(-c2cccc(-n3ncc(C(=O)O)c3C(F)(F)F)n2)c1` [Compound 20], in data set [1], the EC50 was 4 nM. In data set [2], the solubility kinetic came to 7.8 µg/mL (≈ 12.7 µM) and the “Sol pH 7.4” value is reported as 10.7 μg/mL.

For `Cc1cccc(-c2cccc(-c3ncc(C(=O)O)n3C)n2)c1OCc1ccc2c(c1)CCN(CC1CCOCC1)C2` [Compound 68], in data set [1], the EC50 worked out at 180 nM.

For `Cc1csc(CN2CCc3cc(COc4c(C)cccc4-c4cccc(-c5ncc(C(=O)O)n5C)n4)ccc3C2)n1` [Compound 69], in data set [1], the EC50 was 8 nM.
